Reference: US20140243334A1, “SUBSTITUTED HYDOXAMIC ACIDS AND USES THEREOF” (Millennium Pharmaceuticals, Inc., priority 2010, published 2014)

Molecular target: T1, purified human HDAC6 (Homo sapiens, UniProt Q9UBN7)
T1 construct: purchased BPS Bioscience 5006
T1 sequence (Q9UBN7 1-1215): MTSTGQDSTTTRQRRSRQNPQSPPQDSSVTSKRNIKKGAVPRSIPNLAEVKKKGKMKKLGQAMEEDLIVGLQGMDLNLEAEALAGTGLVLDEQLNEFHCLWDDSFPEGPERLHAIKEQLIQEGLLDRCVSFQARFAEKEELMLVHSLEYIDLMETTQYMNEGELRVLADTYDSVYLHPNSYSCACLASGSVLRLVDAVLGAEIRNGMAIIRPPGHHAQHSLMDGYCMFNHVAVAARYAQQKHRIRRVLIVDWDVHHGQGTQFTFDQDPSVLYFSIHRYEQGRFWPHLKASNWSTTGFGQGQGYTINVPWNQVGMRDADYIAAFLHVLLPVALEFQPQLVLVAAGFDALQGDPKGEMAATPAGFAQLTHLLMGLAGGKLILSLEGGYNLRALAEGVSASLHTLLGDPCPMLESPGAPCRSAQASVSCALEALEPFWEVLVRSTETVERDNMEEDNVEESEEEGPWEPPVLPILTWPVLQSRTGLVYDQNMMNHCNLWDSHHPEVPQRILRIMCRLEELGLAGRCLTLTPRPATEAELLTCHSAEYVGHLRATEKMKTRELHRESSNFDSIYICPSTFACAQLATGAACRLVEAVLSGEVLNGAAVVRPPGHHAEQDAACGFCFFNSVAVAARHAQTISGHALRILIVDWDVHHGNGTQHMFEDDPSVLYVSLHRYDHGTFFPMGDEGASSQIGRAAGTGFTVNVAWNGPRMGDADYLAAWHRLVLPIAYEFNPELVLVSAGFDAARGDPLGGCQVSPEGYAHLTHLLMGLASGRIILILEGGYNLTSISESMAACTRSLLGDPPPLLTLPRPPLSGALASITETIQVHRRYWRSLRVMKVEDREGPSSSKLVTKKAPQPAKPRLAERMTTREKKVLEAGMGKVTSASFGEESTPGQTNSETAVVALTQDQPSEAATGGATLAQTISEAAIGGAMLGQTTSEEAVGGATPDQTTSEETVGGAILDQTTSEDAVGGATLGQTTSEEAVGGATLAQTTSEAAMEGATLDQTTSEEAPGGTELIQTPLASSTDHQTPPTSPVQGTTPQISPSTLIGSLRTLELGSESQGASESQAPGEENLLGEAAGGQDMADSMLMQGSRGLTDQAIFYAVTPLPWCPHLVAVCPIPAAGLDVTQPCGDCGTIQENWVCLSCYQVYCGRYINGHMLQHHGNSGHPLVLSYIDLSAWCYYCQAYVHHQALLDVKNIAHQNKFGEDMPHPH
Test: HDAC6 Enzyme Assay
Assay type: biochemical
Conditions: HDAC6 inhibition at a compound concentration of 0.412 μM; read-out: Percent Inhibition at 0.412 μM
Experimental: To measure the inhibition of HDAC6 activity, purified human HDAC6 (BPS Bioscience; Cat. No. 5006) is incubated with substrate Ac-Arg-Gly-Lys(Ac)-AMC peptide (Bachem Biosciences; Cat. No. I-1925) for 1 hour at 30° C. in the presence of test compounds or vehicle DMSO control. The reaction is stopped with the HDAC inhibitor trichostatin A (Sigma; Cat. No. T8552) and the amount of Arg-Gly-Lys-AMC generated is quantitated by digestion with trypsin (Sigma; Cat. No. T1426) and subsequent measurement of the amount of AMC released using a fluorescent plate reader (Pherastar; BMG Technologies) set at Ex 340 nm and Em 460 nm. Concentration response curves are generated by calculating the fluorescence increase in test compound-treated samples relative to DMSO-treated controls, and enzyme inhibition (IC50) values are determined from those curves.

| Structure (SMILES) | inhibition at 0.412 µM [%] |
| --- | --- |
| O=C(NO)C1CCc2ccc(Nc3ccncc3)cc2C1 (stereo not shown) [Compound I-33, N-hydroxy-7-(pyridin-4-ylamino)-1,2,3,4-tetrahydronaphthalene-2-carboxamide] | 57 |
| O=C(NO)C1CCc2ccc(C#Cc3ccccc3)cc2C1 (stereo not shown) [Compound I-34, N-hydroxy-7-(phenylethynyl)-1,2,3,4-tetrahydronaphthalene-2-carboxamide] | 57 |
| Cn1cc(-c2cc(C(=O)Nc3ccc4c(c3)CC(C(=O)NO)CC4)cc(C(F)(F)F)c2)cn1 (stereo not shown) [Compound I-35, N-hydroxy-7-{[3-(1-methyl-1H-pyrazol-4-yl)-5-(trifluoromethyl)benzoyl]amino}-1,2,3,4-tetrahydronaphthalene-2-carboxamide] | 87 |
| O=C(NO)C1CCc2ccc(CCc3ccccc3)cc2C1 (stereo not shown) [Compound I-36, N-hydroxy-7-(2-phenylethyl)-1,2,3,4-tetrahydronaphthalene-2-carboxamide] | 37 |
| CN(C)Cc1cc(C(=O)Nc2ccc3c(c2)CC(C(=O)NO)CC3)cc(C(F)(F)F)c1 (stereo not shown) [Compound I-37, 7-{[3-[(dimethylamino)methyl]-5-(trifluoromethyl)benzoyl]amino}-N-hydroxy-1,2,3,4-tetrahydronaphthalene-2-carboxamide] | 55 |
| O=C(NO)C1CCc2ccc(NCc3cccnc3)cc2C1 (stereo not shown) [Compound I-38, N-hydroxy-7-[(pyridin-3-ylmethyl)amino]-1,2,3,4-tetrahydronaphthalene-2-carboxamide] | 57 |
| NC(=O)c1ccc2c(c1)CC(C(=O)NO)CC2 (stereo not shown) [Compound I-39, N^2-hydroxy-1,2,3,4-tetrahydronaphthalene-2,7-dicarboxamide] | 76 |
| CN(C)c1ccc2c(c1)CC(C(=O)NO)CC2 (stereo not shown) [Compound I-40, 7-(dimethylamino)-N-hydroxy-1,2,3,4-tetrahydronaphthalene-2-carboxamide] | 46 |
| O=C(NO)C1CCc2ccc(Oc3cccc(OCc4ccccc4)c3)cc2C1 (stereo not shown) [Compound I-41, 7-[3-(benzyloxy)phenoxy]-N-hydroxy-1,2,3,4-tetrahydronaphthalene-2-carboxamide] | 64 |
| N#Cc1ccc2c(c1)CC(C(=O)NO)CC2 (stereo not shown) [Compound I-42, 7-cyano-N-hydroxy-1,2,3,4-tetrahydronaphthalene-2-carboxamide] | 62 |
| O=C(NC1CC1)c1cccc(Oc2ccc3c(c2)CC(C(=O)NO)CC3)c1 (stereo not shown) [Compound I-43, 7-{3-[(cyclopropylamino)carbonyl]phenoxy}-N-hydroxy-1,2,3,4-tetrahydronaphthalene-2-carboxamide] | 19 |
| CN(C)CCOc1ccc2c(c1)CC(C(=O)NO)CC2 (stereo not shown) [Compound I-44, 7-[2-(dimethylamino)ethoxy]-N-hydroxy-1,2,3,4-tetrahydronaphthalene-2-carboxamide] | 34 |
| CC(C)(C)NC(=O)c1ccc2c(c1)CC(C(=O)NO)CC2 (stereo not shown) [Compound I-45, N^7-(tert-butyl)-N^2-hydroxy-1,2,3,4-tetrahydronaphthalene-2,7-dicarboxamide] | 79 |
| CN(C)CCOc1cccc(Oc2ccc3c(c2)CC(C(=O)NO)CC3)c1 (stereo not shown) [Compound I-46, 7-{3-[2-(dimethylamino)ethoxy]phenoxy}-N-hydroxy-1,2,3,4-tetrahydronaphthalene-2-carboxamide] | 78 |
| CC(C)c1cccc(Oc2ccc3c(c2)CC(C(=O)NO)CC3)c1 (stereo not shown) [Compound I-47, N-hydroxy-7-(3-isopropylphenoxy)-1,2,3,4-tetrahydronaphthalene-2-carboxamide] | 74 |
| O=C(NO)C1CCc2ccc(-c3cccc(OCc4ccccc4)c3)cc2C1 (stereo not shown) [Compound I-48, 7-[3-(benzyloxy)phenyl]-N-hydroxy-1,2,3,4-tetrahydronaphthalene-2-carboxamide] | 73 |

| Structure (SMILES) | inhibition at 0.412 µM [%] |
| --- | --- |
| O=C(NO)C1CCc2ccc(-c3cccc(Cl)c3)cc2C1 (stereo not shown) [Compound I-49, 7-(3-chlorophenyl)-N-hydroxy-1,2,3,4-tetrahydronaphthalene-2-carboxamide] | 82 |
| O=C(NO)C1CCc2ccc(Oc3cccc(NC(=O)C4CC4)c3)cc2C1 (stereo not shown) [Compound I-50, 7-{3-[(cyclopropylcarbonyl)amino]phenoxy}-N-hydroxy-1,2,3,4-tetrahydronaphthalene-2-carboxamide] | 84 |
| O=C(NC1CC1)c1cccc(-c2ccc3c(c2)CC(C(=O)NO)CC3)c1 (stereo not shown) [Compound I-51, 7-{3-[(cyclopropylamino)carbonyl]phenyl}-N-hydroxy-1,2,3,4-tetrahydronaphthalene-2-carboxamide] | 88 |
| CC(C)(C)OC(=O)Nc1ccc(Oc2ccc3c(c2)CC(C(=O)NO)CC3)cc1 (stereo not shown) [Compound I-52, tert-butyl [4-({7-[(hydroxyamino)carbonyl]-5,6,7,8-tetrahydronaphthalen-2-yl}oxy)phenyl]carbamate] | 74 |
| CC(C)(C)OC(=O)Nc1cccc(Oc2ccc3c(c2)CC(C(=O)NO)CC3)c1 (stereo not shown) [Compound I-53, tert-Butyl [3-({7-[(hydroxyamino)carbonyl]-5,6,7,8-tetrahydronaphthalen-2-yl}oxy)phenyl]carbamate] | 83 |
| O=C(NO)C1CCc2ccc(-c3cc4ccccc4[nH]3)cc2C1 (stereo not shown) [Compound I-54, N-hydroxy-7-(1H-indol-2-yl)-1,2,3,4-tetrahydronaphthalene-2-carboxamide] | 82 |
| CS(=O)(=O)Nc1cccc(Oc2ccc3c(c2)CC(C(=O)NO)CC3)c1 (stereo not shown) [Compound I-55, N-hydroxy-7-{3-[(methylsulfonyl)amino]phenoxy}-1,2,3,4-tetrahydronaphthalene-2-carboxamide] | 93 |
| O=C(NO)C1CCc2ccc(Oc3ccc(NC(=O)C4CC4)cc3)cc2C1 (stereo not shown) [Compound I-56, 7-{4-[(cyclopropylcarbonyl)amino]phenoxy}-N-hydroxy-1,2,3,4-tetrahydronaphthalene-2-carboxamide] | 82 |
| CNC(=O)Nc1cccc(Oc2ccc3c(c2)CC(C(=O)NO)CC3)c1 (stereo not shown) [Compound I-57, N-hydroxy-7-(3-{[(methylamino)carbonyl]amino}phenoxy)-1,2,3,4-tetrahydronaphthalene-2-carboxamide] | 73 |
| CN(C)CCOc1cccc(-c2ccc3c(c2)CC(C(=O)NO)CC3)c1 (stereo not shown) [Compound I-58, 7-{3-[2-(dimethylamino)ethoxy]phenyl}-N-hydroxy-1,2,3,4-tetrahydronaphthalene-2-carboxamide] | 87 |
| O=C(NO)C1CCc2ccc(Oc3cccc(NCc4ccccc4)c3)cc2C1 (stereo not shown) [Compound I-59, 7-[3-(benzylamino)phenoxy]-N-hydroxy-1,2,3,4-tetrahydronaphthalene-2-carboxamide] | 76 |
| O=C(NO)C1CCc2ccc(-c3cccnc3)cc2C1 (stereo not shown) [Compound I-60, N-hydroxy-7-pyridin-3-yl-1,2,3,4-tetrahydronaphthalene-2-carboxamide] | 75 |
| O=C(NO)C1CCc2ccc(-c3cc4ccccc4s3)cc2C1 (stereo not shown) [Compound I-61, 7-(1-benzothien-2-yl)-N-hydroxy-1,2,3,4-tetrahydronaphthalene-2-carboxamide] | 73 |
| CC(C)(C)OC(=O)Nc1cccc(-c2ccc3c(c2)CC(C(=O)NO)CC3)c1 (stereo not shown) [Compound I-62, tert-butyl (3-{7-[(hydroxyamino)carbonyl]-5,6,7,8-tetrahydronaphthalen-2-yl}phenyl)carbamate] | 82 |
| CC(C)(C)C(=O)Nc1cccc(-c2ccc3c(c2)CC(C(=O)NO)CC3)c1 (stereo not shown) [Compound I-63, 7-{3-[(2,2-dimethylpropanoyl)amino]phenyl}-N-hydroxy-1,2,3,4-tetrahydronaphthalene-2-carboxamide] | 90 |
